Experimental data published in patent publication US8716242B2, “β-hairpin peptidomimetics” (priority 2009, dated 2014).
Numbered stars: 1 amine (or outer) side, 2 acyl side, 3 side chain; on linkers, the order of the positions; unused ones are H or OH. Bridge positions count the residues as written; N and C are the ends. Square brackets hold non-standard residues; d marks the D form. Side chains are listed from the residue outwards. Peptide text beside a SMILES is read from it. * marks the point of attachment. γGlu = O=C(O)[C@H](CCC(=O)[*:2])N[*:1]; Octyloxycarbonyl = CCCCCCCCOC(=O)*; Lauroyl = CCCCCCCCCCCC(=O)*; Dab = NCC[C@H](N)C(=O)O

Assays:
[1] = tested on: intracranial glioblastoma and medulloblastoma xenografts; conditions: systemic administration; cited from earlier work
[2] = tested on: human red blood cells (hRBC); assay: Hemolysis of human red blood cells; assay type: cell-based; conditions: 20% hRBC, 1 h, 37° C.
Outline: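 Washed fresh human erythrocytes (20% v/v, ~0.9×10^9 cells/mL final) incubated with compound at 100 μM for 1 h at 37 °C with shaking. Supernatant OD540 read; % hemolysis expressed relative to 2.5% Triton X-100 lysis (100%), with PBS/0.001% acetic acid as 0%.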

[3] = Plasma stability in human plasma; assay type: in vitro ADME; conditions: human plasma, 37° C.; for remaining at 24 h, 10 μM: 1440 min, read-out: human pl. cpd left at 1440 min; for human pl. T1/2: up to 1440 min
Outline: (§1)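 Peptides (1 mM DMSO/H2O stock) were spiked into human or mouse plasma in triplicate and incubated at 37 °C, sampling from 0 to 1440 min. Samples were quenched in formic acid/acetonitrile and analysed by LC/MS MRM. Remaining percent of t=0 was calculated and T1/2 derived by trend fitting.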

human CXCR4 = molecular target: T1, human CXCR4 (Homo sapiens, UniProt P61073); assay: Ca2+-assay: CXCR4-antagonizing activity (SDF-1 induced calcium mobilization); assay type: cell-based; conditions: mouse pre-B cell line 300-19 transfected with human CXCR4; SDF-1 induced Ca2+ mobilization; read-out: IC50% [nM] ± SD, CXCR4 receptor
T1 construct: expressed in transfected cells; host or cells: mouse pre-B cell line 300-19
Outline: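 Mouse pre-B 300-19 cells stably expressing human CXCR4, loaded with Calcium 4 dye in HBSS/20 mM HEPES pH 7.4/0.1% BSA for 1 h at RT. Peptides added before SDF-1; fluorescence (ex 485/em 525 nm) followed for 90 s. IC50 from four-parameter logistic fit of % maximal SDF-1 response.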

[4] = Plasma stability in mouse plasma; assay type: in vitro ADME; conditions: mouse plasma, 37° C.; for remaining at 24 h, 10 μM: 1440 min, read-out: mouse pl. cpd left at 1440 min; for mouse pl. T1/2: up to 1440 min
Outline: as §1

[5] = Cytotoxicity, MTT reduction assay, HELA cells; assay type: cell-based; conditions: human, HELA cells (Acc57), 12.5-50 μM
Outline: (§2)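 HELA (4000/well) and COS-7 (3400/well) cells were grown 24 h, then exposed 48 h at 37° C to peptides at 12.5, 25 and 50 μM in triplicate. MTT reduction read at 595 nm; growth % relative to time-zero, and GI50 interpolated by trend line.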

[6] = Cytotoxicity, MTT reduction assay, COS-7 cells; assay type: cell-based; conditions: African green monkey, COS-7 cells (CRL-1651), 12.5-50 μM
Outline: as §2

T1 sequence (P61073 whole entry): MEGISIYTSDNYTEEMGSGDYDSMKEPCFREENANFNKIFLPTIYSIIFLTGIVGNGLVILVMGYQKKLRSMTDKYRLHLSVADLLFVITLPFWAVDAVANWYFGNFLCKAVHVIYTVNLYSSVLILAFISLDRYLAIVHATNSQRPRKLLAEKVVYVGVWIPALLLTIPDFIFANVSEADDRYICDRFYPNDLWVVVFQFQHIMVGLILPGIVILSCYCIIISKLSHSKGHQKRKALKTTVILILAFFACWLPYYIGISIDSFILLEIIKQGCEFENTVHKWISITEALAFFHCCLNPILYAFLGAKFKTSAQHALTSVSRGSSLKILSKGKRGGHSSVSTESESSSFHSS

SMILES | growth of intracranial glioblastoma and medulloblastoma xenografts [1] | Hemolysis at 100 μM [2] | remaining at 24 h, 10 μM [3] | human pl. T1/2 [3] | IC50 (human CXCR4) | remaining at 24 h, 10 μM [4] | mouse pl. T1/2 [4] | GI50 at 48 h [5] | GI50 at 48 h [6]
c1cc(CN2CCCNCCNCCCNCC2)ccc1CN1CCCNCCNCCCNCC1 [AMD3100] | inhibits growth | – | – | – | – | – | – | – | –
CCCCCCCCOC(=O)NC(=N)NCCC[C@@H]1NC(=O)[C@H](CCN)NC(=O)[C@H]2CCCN2C(=O)[C@H](C)NC(=O)[C@H](CO)NC(=O)[C@@H]2CSSC[C@H](NC(=O)[C@H](Cc3ccc(O)cc3)NC1=O)C(=O)N[C@@H](Cc1ccc(O)cc1)C(=O)N[C@@H](CCC(N)=O)C(=O)N[C@@H](CCCCN)C(=O)N1CCC[C@@H]1C(=O)N1CCC[C@H]1C(=O)N[C@@H](Cc1ccc(O)cc1)C(=O)N[C@@H](Cc1c[nH]cn1)C(=O)N[C@@H](Cc1ccc(O)cc1)C(=O)N2 [compound 6] (cyclo(YHYCSA[dP][Dab]R(Octyloxycarbonyl)YCYQK[dP]P); disulfide 4-11) | – | 0.7% | 76% | 24 h | 28.5 ± 9 nM | 92% | 24 h | > 10 µM | > 35 µM
CCCCCCCCCCCC(=O)N[C@@H](CCC(=O)NCCCC[C@@H]1NC(=O)[C@H](Cc2ccc(O)cc2)NC(=O)[C@@H]2CSSC[C@H](NC(=O)[C@H](C)NC(=O)[C@H](Cc3c[nH]cn3)NC(=O)[C@H](Cc3ccc(O)cc3)NC(=O)[C@@H]3CCCN3C(=O)[C@H]3CCCN3C(=O)[C@H](CCCCN)NC1=O)C(=O)N[C@@H](CCCNC(=N)N)C(=O)NCC(=O)N1CCC[C@@H]1C(=O)N[C@@H](CCN)C(=O)N[C@@H](CCCNC(=N)N)C(=O)N[C@@H](Cc1ccc(O)cc1)C(=O)N2)C(=O)O [compound 27] (cyclo(YHACRG[dP][Dab]RYCYK([γGlu-Lauroyl])K[dP]P); disulfide 4-11) | – | 1.6% | 75% | 24 h | 2.6 ± 0.7 nM | 22% | 24 h | > 48 µM | > 50 µM
